Data from patent US10842806B2, “Methods for treating ocular inflammatory disorders” (Massachusetts Eye and Ear Infirmary, priority 2011, dated 2020).

Legend:
[1] = system: IRBP-reactive T cells (LN cells); assay: LN cells from untreated EAU mice cultured with IRBP peptide in the presence of AICAR; assay type: cell-based
Procedure: To measure cell proliferation, LN cells were resuspended at 5×10^5 cells per 200 μl of medium in 96-well flat-bottom plates. Cells were incubated for 72 hours and proliferation during the last 12 hours was measured by using a bromodeoxyuridine (BrdU) cell proliferation assay kit (Millipore, Billerica, Mass.). Supernatant in the culture medium was collected at 48 hours and cytokine production in the supernatant was measured by ELISA using the Quantikine mouse IFN-γ, IL-4, IL-10 and IL-17 kits (R&D system, Minneapolis, Minn.).
To assess the effect of AICAR on already developed IRBP-specific T cells, LN cells from untreated EAU mice were cultured with IRBP peptide in the presence of AICAR (FIGS. 10A-10E). Specifically, LN cells were resuspended at 5×10^5 cells per 200 μl of medium in 96-well flat-bottom plates. Triplicate samples of cells were stimulated with or without IRBP at the indicated concentrations. AICAR was added at the indicated concentrations. Cell proliferation and cytokine production were measured as previously described in Example 10.

[2] = system: endotoxin-induced uveitis (EIU); assay: Histopathologic evaluation of EIU eyes (iris-ciliary body); assay type: in vivo, Lewis rats; conditions: AICAR 50 mg/kg pretreatment, 24 h after LPS
Procedure: Male Lewis rats ranging from 6-8 weeks old (Charles River, Wilmington, Mass.) were used for these studies. To study the effects of AICAR pretreatment, AICAR and PBS (for placebo treatment) were delivered via intraperitoneal injection of AICAR (50 mg/kg or 100 mg/kg body weight; Sigma) diluted in 150 μl PBS or equal volume of PBS at 6 hours before and at the same time as LPS injection. Four experimental groups of rats were compared: (1) Normal: no treatment (2) AICAR: normal rats treated with AICAR 6 hours before examination; (3) LPS: EIU rats treated with PBS; (4) LPS+AICAR: EIU rats treated with AICAR. Two additional groups of rats were used to study the effects of AICAR (50 mg/kg) given either at the same time as LPS injection or at 6 hours after LPS injection. For histopathologic evaluations, EIU rats were euthanized 24 hours after LPS injection. The eyes were enucleated immediately and stored in 10% formalin solution. The eyes were then embedded in paraffin, and 10 μm sagittal sections were cut and stained with hematoxylin and eosin. For histopathologic evaluation, the anterior chamber and posterior chamber around the iris-ciliary body complex were examined with light microscopy.

[3] = system: experimental autoimmune uveitis (EAU); assay: Histological scoring of EAU (H&E sections); assay type: in vivo, C57BL/6 (WT) mice
NF-κB P65 = NF-κB P65 in retinal nuclear extracts (ELISA); assay type: in vivo, Lewis rats; conditions: AICAR pretreatment; 3 hours after LPS; n=9; PBS-treated EIU 27.3±11.0, control 8.3±8.6
Procedure: Male Lewis rats ranging from 6-8 weeks old (Charles River, Wilmington, Mass.) were used for these studies. To study the effects of AICAR pretreatment, AICAR and PBS (for placebo treatment) were delivered via intraperitoneal injection of AICAR (50 mg/kg or 100 mg/kg body weight; Sigma) diluted in 150 μl PBS or equal volume of PBS at 6 hours before and at the same time as LPS injection. Four experimental groups of rats were compared: (1) Normal: no treatment (2) AICAR: normal rats treated with AICAR 6 hours before examination; (3) LPS: EIU rats treated with PBS; (4) LPS+AICAR: EIU rats treated with AICAR. Two additional groups of rats were used to study the effects of AICAR (50 mg/kg) given either at the same time as LPS injection or at 6 hours after LPS injection. To investigate the LPS-induced signal transduction pathway, NF-κB P65 protein levels translocated into the nuclei of retinal cell extracts were examined 3 hours after LPS injection. For the measurement of NF-κB activity, pooled retinas from six normal rats, nine EIU PBS-treated rats, and nine EIU AICAR-treated rats were analyzed. […] The amount of NF-κB in the nuclear extracts was analyzed by measuring the p65 protein levels with a NF-κB detection kit (p65 Transcription Factor Assay kit; Active Motif, Carlsbad, Calif.). NF-κB concentration was calculated and corrected for protein concentration.

Compound: NC(=O)c1ncn([C@@H]2O[C@H](CO)[C@@H](O)[C@H]2O)c1N [AICAR, 5-aminoimidazole-4-carboxamide-1-β-d-ribofuranoside]
- IFN-γ production in vitro [1]: suppressed
- IL-4 production in vitro [1]: not significantly induced
- IL-10 production in vitro [1]: suppressed
- IL-17 production in vitro [1]: suppressed
- T cell proliferation in vitro [1]: suppressed
- Number of leukocytes infiltrated around the iris-ciliary body (histopathology) [2]: suppressed
- EAU mean pathologic score ([3]; AICAR 200 mg/kg i.p. daily day 0 to 21, day 21, scale 0-4, control 1.65±0.68): 0.53±0.73
- EAU mean pathologic score, effector phase treatment ([3]; AICAR administered from day 8 to 21 after immunization, n=8, controls 1.03±0.75): 0.13±0.27
- NF-κB P65 protein level in retinal nuclear extracts (NF-κB P65): 18.2±3.9 ng/mg total protein
